The target in series [1] is T1, ABCB1 (Homo sapiens, UniProt P08183). Briefly: cell-based. The arrangement: full length ABCB1 (transfected HEK293); ABCB1 membrane vesicles (ATPase kit). The conditions noted are these: read-out: % of the basal activity.
Series [2] concerns the target T1, ABCB1.

T1 sequence (P08183 whole entry): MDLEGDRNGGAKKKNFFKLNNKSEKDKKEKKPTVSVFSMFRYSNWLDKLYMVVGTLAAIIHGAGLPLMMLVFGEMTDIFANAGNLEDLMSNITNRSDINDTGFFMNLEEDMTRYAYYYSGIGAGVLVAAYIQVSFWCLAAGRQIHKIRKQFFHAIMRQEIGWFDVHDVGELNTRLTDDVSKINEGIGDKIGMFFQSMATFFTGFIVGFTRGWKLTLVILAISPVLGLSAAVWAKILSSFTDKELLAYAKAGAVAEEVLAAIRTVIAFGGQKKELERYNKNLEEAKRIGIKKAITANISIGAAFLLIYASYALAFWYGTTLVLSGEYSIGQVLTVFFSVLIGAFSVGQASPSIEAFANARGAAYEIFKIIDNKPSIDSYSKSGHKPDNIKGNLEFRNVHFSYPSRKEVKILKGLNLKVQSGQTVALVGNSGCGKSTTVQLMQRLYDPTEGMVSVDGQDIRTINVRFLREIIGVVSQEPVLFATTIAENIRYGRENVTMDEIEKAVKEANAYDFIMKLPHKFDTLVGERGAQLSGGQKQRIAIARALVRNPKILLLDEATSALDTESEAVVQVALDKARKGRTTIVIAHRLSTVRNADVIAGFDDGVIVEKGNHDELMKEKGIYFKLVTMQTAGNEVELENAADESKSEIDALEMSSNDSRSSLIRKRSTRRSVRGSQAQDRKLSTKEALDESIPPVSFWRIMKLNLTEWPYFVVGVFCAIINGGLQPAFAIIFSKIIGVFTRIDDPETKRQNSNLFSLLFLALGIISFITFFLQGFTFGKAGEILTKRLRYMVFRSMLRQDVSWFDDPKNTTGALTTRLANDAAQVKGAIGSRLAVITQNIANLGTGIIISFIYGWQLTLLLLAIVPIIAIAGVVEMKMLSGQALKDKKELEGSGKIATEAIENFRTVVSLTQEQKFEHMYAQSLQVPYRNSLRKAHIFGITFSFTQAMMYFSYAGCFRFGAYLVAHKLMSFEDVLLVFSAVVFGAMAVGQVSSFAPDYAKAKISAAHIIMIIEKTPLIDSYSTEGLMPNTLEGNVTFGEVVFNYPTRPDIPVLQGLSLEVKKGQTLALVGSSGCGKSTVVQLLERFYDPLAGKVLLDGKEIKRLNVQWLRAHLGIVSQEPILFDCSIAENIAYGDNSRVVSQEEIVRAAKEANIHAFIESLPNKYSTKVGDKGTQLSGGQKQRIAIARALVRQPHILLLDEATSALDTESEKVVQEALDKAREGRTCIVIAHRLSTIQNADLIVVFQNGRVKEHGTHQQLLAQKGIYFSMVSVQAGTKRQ

Turning to `COC(=O)Nc1ccc(-c2nc(N3CCOCC3)c3cnn(C4CCN(C(=O)OC)CC4)c3n2)cc1` [WYE-354], the Emax on ABCB1 [1] is 141%.

As to `CC(=O)O[C@H]1C(=O)[C@@]2(C)[C@H]([C@H](OC(=O)c3ccccc3)[C@]3(O)C[C@H](OC(=O)[C@H](O)[C@@H](NC(=O)c4ccccc4)c4ccccc4)C(C)=C1C3(C)C)[C@]1(OC(C)=O)CO[C@@H]1C[C@@H]2O` [paclitaxel], the “[3H]-paclitaxel accumulation in ABCB1-overexpressing and ABCB1-transfected cells” value on ABCB1 [2] is “drug–drug interaction between WYE-354 and paclitaxel, which is a known substrate of ABCB1”.

Source of the values: article PMC7073023, “Overexpression of ABCB1 Transporter Confers Resistance to mTOR Inhibitor WYE-354 in Cancer Cells” (International Journal of Molecular Sciences, 2020).
